The compounds below were run on P. falciparum 3D7 growth, pLDH absorbance (assay: blood-stage malaria parasite growth potency – strain 3D7, dose response (AID 2305)).

Compound	IC50 [nM]
O=C(c1ccc(-c2ccc(Cl)cc2)o1)N1CCc2cc3nccc(N4CCN5CCC[C@H]5C4)c3cc21	170
CC(Cc1ccc(CNC(=O)c2ccc(CC(C)NCCc3cccc(Cl)c3)cc2)cc1)NCCc1cccc(Cl)c1 (configuration not stated)	700
O=C(NCc1ccccc1)Nc1cccc(-c2cccc(-c3nc4ccc(C(F)(F)F)cc4[nH]3)c2)c1	260
COc1ccc2nccc([C@@H](O)CN3CCC(NCc4ccc5c(c4)NC(=O)CS5)CC3)c2c1	570
Cc1[nH]c(C)c(-c2ccc(Cl)cc2Cl)c(=O)c1Br	1010
O=C(/C=C/c1ccc(Cl)c(Cl)c1)NCCCCCN1CCC(NC(=O)Nc2cc(F)ccc2F)CC1	700
O=C(NCCCCN1CCC(c2c[nH]c3ccccc23)CC1)c1ccc(-c2ccc(C(F)(F)F)cc2)cc1	800
N=C(N)c1ccc(-c2cc3ccc(C(=N)N)cc3[nH]2)cc1	60
C=C[C@]1(C)C[C@@H](OC(=O)c2n[nH]c3ccccc3c2=O)[C@]2(C)[C@H](C)CC[C@]3(CCC(=O)[C@H]32)[C@@H](C)[C@@H]1O	670
Cc1ccc(Cn2ncc(N3C[C@@H](C)N[C@@H](C)C3)c(Cl)c2=O)cc1NC(=O)Nc1ccc(-c2ccccc2)cc1	740
c1ccc(CCNCc2cccc(-c3ccccc3CNCc3ccc4c(c3)OCO4)c2)nc1	970
CC(C)CC(NC(=O)c1cc2ccccc2s1)C(=O)N1CCCCCC1c1ccc(C(C)(C)C)cc1 (configuration not stated)	860
CC(C)(C)c1ccc(NC(=O)c2ccc(CN3CCCN(Cc4cccc(F)c4)CC3)cc2)cc1	1120
CC1CC(C)CN(CC(O)CNC(=O)Nc2ccc(Br)cc2)C1 (configuration not stated)	1050
Cc1cc(N[C@@H](Cc2ccccc2)C(=O)Nc2ccccc2)nc(Nc2ccccc2)n1	1010
COCC(C)n1c(SCC(=O)Nc2cc(C(F)(F)F)ccc2Cl)nc2ccccc2c1=O (configuration not stated)	130
Cc1cc(C)c(C(=O)Nc2n[nH]c3nnc(-c4cccc(F)c4F)cc23)c(C)c1	1070
CC(C)CN1CCN(CCNc2c3ccccc3nc3ccccc23)CC1	820
CO/C(=C\C=C\c1cc2cc(Cl)c(Cl)cc2[nH]1)C(=O)NCCCN1CCN(c2cccc(OC)c2)CC1	840
CC(C)c1ccc(Nc2nc(NCCc3cnc[nH]3)nc(NCc3ccccc3)n2)cc1	690
Cc1cccc2[nH]c(-c3ccc(-c4cccc(CNC(C)C)c4)s3)nc12	230
O=C(c1ccc(-c2ccc(-c3nc4ccc(C(F)(F)F)cc4[nH]3)s2)cc1)N1CCCCC1CN1CCC(O)C1 (configuration not stated)	560
CC(C)c1ccc(CN2CCCCC(NC(=O)c3cc(-c4ccccc4Cl)cs3)C2)cc1 (configuration not stated)	1120

Compound	IC50 [nM]
O=C(C1CCCC1)N1CCOC(CCN2CCC(c3ccccc3)CC2)(c2ccc(Cl)c(Cl)c2)C1 (configuration not stated)	940
CCn1c(Sc2ccc(C#N)c([N+](=O)[O-])c2)nnc1-c1ccc(OC)cc1	810
Cc1nn(-c2ccc(Cl)cc2)c2[nH]c(CN3CCN(c4cccc(Cl)c4)CC3)cc(=O)c12	240
O=C(Cc1cc(=O)oc2cc(O)ccc12)NC1CCC(CN2CCC(c3c[nH]c4ccccc34)CC2)CC1 (configuration not stated)	1130
Cc1cccc2[nH]c(-c3cccc(-c4cccc(NC(=O)COc5ccccc5C(N)=O)c4)c3)nc12	160
COc1ccc(NC(=O)c2ccc(OCCCCCCCOc3ccc(C(=O)Nc4ccc(OC)c(N5CCN(C)CC5)c4)cc3)cc2)cc1N1CCN(C)CC1	600
Cc1csc(-c2ccc3[nH]cc(C4=CCN(C)CC4)c3c2)n1	750
CCCc1ccc2c(c1O)CCC(N(CCC)CCC)C2 (configuration not stated)	890
CC1CCN(Cc2c(O)ccc3c(=O)c(-c4nc5ccccc5s4)c(N)oc23)CC1	160
O=C1NC(c2ccc(N3CCCCCC3)cc2)Nc2ccccc21 (configuration not stated)	570
Cc1cc(NC(=O)Nc2ccc(C(C)C)cc2)c2ccccc2n1	660
CNC(=O)c1cnc(Nc2ccc(N3CCOCC3)cc2)nc1Nc1cccc(OC)c1	760
COc1ccc2ncc(Cl)c(CCN3CCC(NCc4ccc5c(n4)NC(=O)CO5)CC3)c2c1	470
CCN1CCC(N(CCCCCCCCc2ccc(C(F)(F)F)cc2)C(=O)Cn2c(CCc3cccc(F)c3F)cc(=O)c3ccccc32)CC1	1200
COc1cccc2cc(C(=O)N[C@@H](CC(C)C)C(=O)NC(/C=N/NC(=O)c3ccccc3)CCc3ccccc3)oc12 (some centres not stated)	580
O=C(Nc1ccccc1F)NC1CCN(c2ccnc(Nc3ccc(F)cc3)n2)CC1	750
O=C(Nc1cccc(CN2CCCN(Cc3ccc(O)cc3)CC2)c1)c1cccc(F)c1	900
Cc1ccc2[nH]c(C3CCCNC3)c(-c3ccncc3)c2c1 (configuration not stated)	1230
O=C1C(c2ccccc2)=C(Nc2cc(Cl)cc(Cl)c2)c2ccccc21	370
COc1ccccc1-c1cccc(CNC2CCN(CC3Cn4c(=O)ccc5ccc(F)c3c54)CC2)c1 (configuration not stated)	1380
N#Cc1ccc(CN2CCC(Oc3ccc(NC(=O)c4cccs4)cc3)CC2)cc1	1030
COc1ccc2nc(Nc3nc(-c4ccccn4)cs3)sc2c1	1120
N#Cc1cccc(NC(=O)Nc2ccc3c(c2)CN(Cc2c[nH]c4ncccc24)C3)c1	800

Compound	IC50 [nM]
CC(CNCc1cn(Cc2cc(Br)cc(Br)c2)c2ccccc12)CNc1cc(=O)c2ccccc2[nH]1 (configuration not stated)	460
Oc1cccc(-c2nc3ccc(C4=N[C@H]5CCCC[C@H]5N4)cc3[nH]2)c1	590
Cc1nc(-c2ccc(-c3ccc(NC(=O)c4coc5ccc(N6C[C@@H](C)N[C@@H](C)C6)cc45)cc3)c(C)c2)no1	930
c1cc(-c2ccc(CNCCCn3ccnc3)cc2)cc(-c2nc3ccccc3[nH]2)c1	110
CCNc1cc(C(=O)N[C@@H](Cc2ccccc2)[C@H](O)CNC(C)(C)CCCC(C)C)cc(N2CCCC2=O)c1	830
COc1cc(CNCCCNc2nc3ncccc3[nH]2)c2[nH]cc(Br)c2c1	1160
CN(C)C(=O)C(CC(=O)NCc1ccccc1Cl)N(C)C (configuration not stated) (tested in a mixture with another compound)	900
O=C(Cc1cccc(O)c1)Nc1ccc(-c2cccc(-c3nc4ccc(C(F)(F)F)cc4[nH]3)c2)cc1	980
CC1(C(=O)Nc2ccc([N+](=O)[O-])cc2O)CC2c3ccccc3C1c1ccccc12 (configuration not stated)	710
CC[C@H](C)CNC(=O)c1ccnc(-c2ccc(CNC3Cc4ccccc4C3)cc2)c1	570
O=C(/C=C/c1ccccc1Cl)Nc1ccc(Br)c(OCCN2CCC(O)(c3ccccc3)CC2)c1	480
N#Cc1ccc2c(c1)CCN(CCC1CCC(NC(=O)/C=C/c3cccc4cc[nH]c34)CC1)CC2 (configuration not stated)	1090
CN1CC=C(c2csc3ccc(NC(=O)Nc4ccc(-c5ccncc5)c5ccccc45)cc23)CC1	800
CC(C)(C)CCN1CCC(CNC(=O)c2cc(-c3cccc(Cl)c3)cs2)C1 (configuration not stated)	820
c1ccc2c3c(ccc2c1)Sc1c(ccc2ccccc12)N3	1070
COc1ccc2nccc([C@@H](O)CN3CCC(NC(=O)/C=C/c4ccc5cc(C)[nH]c5c4)CC3)c2c1	730
Cc1ccc(NC(=O)c2ccc3ncccc3c2)cc1OC1CCN(CCC(C)C)C1 (configuration not stated)	350
CC(C)c1ccc(NC(=O)N2CCc3ccc(OCCN(C(C)C)C(C)C)cc32)c(Br)c1	1090
O=C(CC1NC(=O)c2ccccc21)Nc1ccc(-c2ccc(-c3nc4ccc(C(F)(F)F)cc4[nH]3)cc2)cc1 (configuration not stated)	470
Cc1cccc2[nH]c(-c3ccc(-c4cccc(NC(=O)CCc5cnc[nH]5)c4)cc3)nc12	410
O=C(NC1CCN(CC2(c3ccccc3)CCCC2)CC1)c1[nH]ncc1Cl	1040
